Columns and labels:
[1] = biological target: Tyrosine-protein kinase receptor Tie-1 (Homo sapiens) (UniProt P35590); settings: Compound concentration 1000.0 nM
[2] = biological target: Myosin light chain kinase, smooth muscle (Homo sapiens) (UniProt Q15746); settings: Compound concentration 1000.0 nM
[3] = biological target: Microtubule-associated serine/threonine-protein kinase 1 (Homo sapiens) (UniProt Q9Y2H9); settings: Compound concentration 1000.0 nM
[4] = biological target: Receptor-type tyrosine-protein kinase FLT3 (Homo sapiens) (UniProt P36888); settings: Compound concentration 1000.0 nM
[5] = biological target: Serine/threonine-protein kinase PLK3 (Homo sapiens) (UniProt Q9H4B4); settings: Compound concentration 1000.0 nM
Chain of Serine/threonine-protein kinase PLK3 (Homo sapiens) (Q9H4B4 whole entry, looked up): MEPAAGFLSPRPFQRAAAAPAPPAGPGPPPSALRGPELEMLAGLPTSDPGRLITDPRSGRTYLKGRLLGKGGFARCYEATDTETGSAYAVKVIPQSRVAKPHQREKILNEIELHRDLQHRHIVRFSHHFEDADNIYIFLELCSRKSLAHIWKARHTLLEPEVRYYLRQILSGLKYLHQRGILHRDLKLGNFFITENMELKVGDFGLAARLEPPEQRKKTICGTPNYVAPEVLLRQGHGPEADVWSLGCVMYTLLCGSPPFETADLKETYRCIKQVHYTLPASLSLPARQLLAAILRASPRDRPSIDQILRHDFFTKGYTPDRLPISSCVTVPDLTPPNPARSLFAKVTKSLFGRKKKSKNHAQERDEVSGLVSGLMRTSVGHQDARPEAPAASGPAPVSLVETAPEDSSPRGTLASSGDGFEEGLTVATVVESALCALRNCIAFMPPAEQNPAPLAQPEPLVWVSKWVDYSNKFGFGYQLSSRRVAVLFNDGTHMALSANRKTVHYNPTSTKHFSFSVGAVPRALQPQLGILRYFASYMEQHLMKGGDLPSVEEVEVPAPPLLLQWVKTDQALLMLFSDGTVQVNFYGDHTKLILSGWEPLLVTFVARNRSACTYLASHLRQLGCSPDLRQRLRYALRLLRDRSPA

[6] = biological target: Sigma non-opioid intracellular receptor 1 (Homo sapiens, UniProt Q99720); settings: Compound concentration 10.0 uM
[7] = biological target: Serine/threonine-protein kinase PAK 4 (Homo sapiens) (UniProt O96013); settings: Compound concentration 1000.0 nM
[8] = biological target: Cyclin-dependent kinase 4 (Homo sapiens) (UniProt P11802); settings: Compound concentration 1000.0 nM
[9] = biological target: Casein kinase I isoform alpha (Homo sapiens) (UniProt P48729); settings: Compound concentration 1000.0 nM
[10] = biological target: Phosphatidylinositol 4,5-bisphosphate 3-kinase catalytic subunit delta isoform (Homo sapiens) (UniProt O00329); settings: Compound concentration 1000.0 nM
[11] = biological target: Alpha-1D adrenergic receptor (Homo sapiens) (UniProt P25100); settings: Compound concentration 10.0 uM
[12] = biological target: Leukocyte tyrosine kinase receptor (Homo sapiens) (UniProt P29376); settings: Compound concentration 1000.0 nM
[13] = biological target: Tyrosine-protein kinase SYK (Homo sapiens) (UniProt P43405); settings: Compound concentration 1000.0 nM
[14] = biological target: Non-receptor tyrosine-protein kinase TYK2 (Homo sapiens) (UniProt P29597); settings: Compound concentration 1000.0 nM
[15] = biological target: 5-hydroxytryptamine receptor 2C (Homo sapiens) (UniProt P28335); settings: Compound concentration 10.0 uM
[16] = biological target: Serine/threonine-protein kinase Nek3 (Homo sapiens) (UniProt P51956); settings: Compound concentration 1000.0 nM
[17] = biological target: Mitogen-activated protein kinase 7 (Homo sapiens) (UniProt Q13164); settings: Compound concentration 1000.0 nM
Chain of Mitogen-activated protein kinase 7 (Homo sapiens) (Q13164 2-816 limits assumed): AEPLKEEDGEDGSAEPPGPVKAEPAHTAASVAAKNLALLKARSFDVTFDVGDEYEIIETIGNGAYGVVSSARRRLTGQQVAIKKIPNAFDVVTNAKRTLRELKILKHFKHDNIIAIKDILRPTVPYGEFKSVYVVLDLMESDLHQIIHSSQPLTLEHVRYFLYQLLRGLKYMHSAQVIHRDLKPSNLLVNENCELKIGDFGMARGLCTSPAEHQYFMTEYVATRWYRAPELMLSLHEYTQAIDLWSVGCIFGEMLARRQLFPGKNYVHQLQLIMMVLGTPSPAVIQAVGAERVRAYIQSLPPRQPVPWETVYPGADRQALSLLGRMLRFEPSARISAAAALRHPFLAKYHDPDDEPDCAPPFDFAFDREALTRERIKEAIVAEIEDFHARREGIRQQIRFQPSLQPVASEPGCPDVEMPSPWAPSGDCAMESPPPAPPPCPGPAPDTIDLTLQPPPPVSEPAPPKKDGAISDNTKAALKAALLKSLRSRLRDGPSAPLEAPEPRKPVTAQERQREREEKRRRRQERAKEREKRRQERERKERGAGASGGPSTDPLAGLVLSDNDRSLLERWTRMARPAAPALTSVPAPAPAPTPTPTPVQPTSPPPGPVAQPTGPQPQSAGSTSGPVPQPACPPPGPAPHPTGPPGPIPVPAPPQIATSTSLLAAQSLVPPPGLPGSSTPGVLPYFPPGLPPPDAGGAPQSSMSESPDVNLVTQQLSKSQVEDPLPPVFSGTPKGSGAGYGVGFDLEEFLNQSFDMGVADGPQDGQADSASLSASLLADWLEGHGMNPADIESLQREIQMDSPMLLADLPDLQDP

[18] = biological target: Tyrosine-protein kinase ABL1 (Homo sapiens) (UniProt P00519); settings: Compound concentration 1000.0 nM
Chain of Tyrosine-protein kinase ABL1 (Homo sapiens) (P00519 whole entry, canonical isoform): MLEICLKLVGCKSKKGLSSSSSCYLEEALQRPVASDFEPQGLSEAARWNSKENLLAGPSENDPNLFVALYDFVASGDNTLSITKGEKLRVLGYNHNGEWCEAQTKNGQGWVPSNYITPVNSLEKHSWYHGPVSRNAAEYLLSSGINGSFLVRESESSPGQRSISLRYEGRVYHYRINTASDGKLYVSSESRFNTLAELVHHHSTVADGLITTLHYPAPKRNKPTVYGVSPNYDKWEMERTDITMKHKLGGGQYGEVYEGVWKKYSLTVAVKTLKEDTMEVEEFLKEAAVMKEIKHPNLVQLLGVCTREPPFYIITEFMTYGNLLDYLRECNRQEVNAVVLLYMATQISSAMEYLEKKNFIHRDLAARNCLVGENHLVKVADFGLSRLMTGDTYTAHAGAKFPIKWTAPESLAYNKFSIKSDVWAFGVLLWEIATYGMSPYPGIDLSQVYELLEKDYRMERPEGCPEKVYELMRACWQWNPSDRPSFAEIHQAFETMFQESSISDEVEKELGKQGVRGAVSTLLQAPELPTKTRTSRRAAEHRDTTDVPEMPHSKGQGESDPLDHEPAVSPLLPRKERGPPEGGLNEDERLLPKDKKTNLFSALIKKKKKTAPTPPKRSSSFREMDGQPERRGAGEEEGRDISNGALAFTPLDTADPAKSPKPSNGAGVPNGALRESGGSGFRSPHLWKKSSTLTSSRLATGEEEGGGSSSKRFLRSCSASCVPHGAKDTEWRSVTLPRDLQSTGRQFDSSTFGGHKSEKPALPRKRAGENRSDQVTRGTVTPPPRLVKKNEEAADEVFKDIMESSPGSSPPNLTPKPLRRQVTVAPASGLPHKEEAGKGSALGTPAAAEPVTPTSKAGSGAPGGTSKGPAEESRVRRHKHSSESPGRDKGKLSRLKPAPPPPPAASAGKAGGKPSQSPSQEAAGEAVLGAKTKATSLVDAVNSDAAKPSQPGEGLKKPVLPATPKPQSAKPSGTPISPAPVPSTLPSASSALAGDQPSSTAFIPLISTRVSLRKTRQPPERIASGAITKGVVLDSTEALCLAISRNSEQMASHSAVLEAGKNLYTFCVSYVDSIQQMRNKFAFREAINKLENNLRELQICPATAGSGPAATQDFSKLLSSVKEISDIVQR

[19] = biological target: Serine/threonine-protein kinase ICK (Homo sapiens) (UniProt Q9UPZ9); settings: Compound concentration 1000.0 nM
[20] = biological target: Mitogen-activated protein kinase kinase kinase 2 (Homo sapiens) (UniProt Q9Y2U5); settings: Compound concentration 1000.0 nM
[21] = biological target: Dual specificity tyrosine-phosphorylation-regulated kinase 1A (Homo sapiens) (UniProt Q13627); settings: Compound concentration 1000.0 nM
[22] = biological target: Phosphatidylinositol 3-kinase catalytic subunit type 3 (Homo sapiens) (UniProt Q8NEB9); settings: Compound concentration 1000.0 nM
[23] = biological target: D(4) dopamine receptor (Homo sapiens) (UniProt P21917); settings: Compound concentration 10.0 uM
[24] = biological target: Tyrosine-protein kinase ABL1 (Homo sapiens) (UniProt P00519); settings: Compound concentration 1000.0 nM; remark: listed apart in the source
[25] = tested on: Phosphatidylinositol 4,5-bisphosphate 3-kinase catalytic subunit alpha isoform (Homo sapiens), P42336 [I800L]; settings: Compound concentration 1000.0 nM
[26] = biological target: G protein-coupled receptor kinase 4 (Homo sapiens) (UniProt P32298); settings: Compound concentration 1000.0 nM
[27] = biological target: Fibroblast growth factor receptor 3 (Homo sapiens) (UniProt P22607); settings: Compound concentration 1000.0 nM
[28] = biological target: D(2) dopamine receptor (Homo sapiens) (UniProt P14416); settings: Compound concentration 10.0 uM
[29] = biological target: Serine/threonine-protein kinase DCLK1 (Homo sapiens) (UniProt O15075); settings: Compound concentration 1000.0 nM
[30] = biological target: Tyrosine-protein kinase JAK3 (Homo sapiens) (UniProt P52333); settings: Compound concentration 1000.0 nM
[31] = biological target: MAP kinase-interacting serine/threonine-protein kinase 2 (Homo sapiens) (UniProt Q9HBH9); settings: Compound concentration 1000.0 nM
[32] = tested on: eIF-2-alpha kinase GCN2 (Homo sapiens), Q9P2K8 [S808G]; settings: Compound concentration 1000.0 nM
[33] = biological target: Wee1-like protein kinase (Homo sapiens) (UniProt P30291); settings: Compound concentration 1000.0 nM
[34] = biological target: 5-hydroxytryptamine receptor 2B (Homo sapiens) (UniProt P41595); settings: Compound concentration 10.0 uM
Chain of 5-hydroxytryptamine receptor 2B (Homo sapiens) (P41595 whole entry): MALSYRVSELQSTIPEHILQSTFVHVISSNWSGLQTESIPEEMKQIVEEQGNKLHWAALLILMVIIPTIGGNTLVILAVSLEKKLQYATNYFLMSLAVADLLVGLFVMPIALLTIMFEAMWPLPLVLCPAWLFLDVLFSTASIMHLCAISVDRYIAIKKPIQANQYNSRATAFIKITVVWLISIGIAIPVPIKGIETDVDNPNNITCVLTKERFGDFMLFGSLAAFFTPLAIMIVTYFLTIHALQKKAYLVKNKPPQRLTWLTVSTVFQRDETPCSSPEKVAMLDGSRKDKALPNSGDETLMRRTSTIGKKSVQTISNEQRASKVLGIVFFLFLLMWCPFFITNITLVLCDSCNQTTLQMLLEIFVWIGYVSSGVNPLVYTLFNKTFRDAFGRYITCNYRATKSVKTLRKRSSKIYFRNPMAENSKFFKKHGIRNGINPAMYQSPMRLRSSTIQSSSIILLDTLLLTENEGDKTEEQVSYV

[35] = biological target: Tyrosine-protein kinase Srms (Homo sapiens) (UniProt Q9H3Y6); settings: Compound concentration 1000.0 nM
[36] = biological target: Serine/threonine-protein kinase WNK4 (Homo sapiens) (UniProt Q96J92); settings: Compound concentration 1000.0 nM
[37] = biological target: Eukaryotic translation initiation factor 2-alpha kinase 1 (Homo sapiens) (UniProt Q9BQI3); settings: Compound concentration 1000.0 nM
[38] = biological target: Serine/threonine-protein kinase 24 (Homo sapiens) (UniProt Q9Y6E0); settings: Compound concentration 1000.0 nM
[39] = biological target: BDNF/NT-3 growth factors receptor (Homo sapiens) (UniProt Q16620); settings: Compound concentration 1000.0 nM
[40] = biological target: Serine/threonine-protein kinase TNNI3K (Homo sapiens) (UniProt Q59H18); settings: Compound concentration 1000.0 nM
[41] = biological target: Serine/threonine-protein kinase D1 (Homo sapiens) (UniProt Q15139); settings: Compound concentration 1000.0 nM
[42] = biological target: Activated CDC42 kinase 1 (Homo sapiens) (UniProt Q07912); settings: Compound concentration 1000.0 nM
[43] = biological target: Phosphatidylinositol 4,5-bisphosphate 3-kinase catalytic subunit alpha isoform (Homo sapiens) (UniProt P42336); settings: Compound concentration 1000.0 nM
[44] = biological target: Dual serine/threonine and tyrosine protein kinase (Homo sapiens) (UniProt Q6XUX3); settings: Compound concentration 1000.0 nM
[45] = biological target: Myosin light chain kinase 2, skeletal/cardiac muscle (Homo sapiens) (UniProt Q9H1R3); settings: Compound concentration 1000.0 nM

Chain of Myosin light chain kinase, smooth muscle (Homo sapiens) (Q15746 whole entry): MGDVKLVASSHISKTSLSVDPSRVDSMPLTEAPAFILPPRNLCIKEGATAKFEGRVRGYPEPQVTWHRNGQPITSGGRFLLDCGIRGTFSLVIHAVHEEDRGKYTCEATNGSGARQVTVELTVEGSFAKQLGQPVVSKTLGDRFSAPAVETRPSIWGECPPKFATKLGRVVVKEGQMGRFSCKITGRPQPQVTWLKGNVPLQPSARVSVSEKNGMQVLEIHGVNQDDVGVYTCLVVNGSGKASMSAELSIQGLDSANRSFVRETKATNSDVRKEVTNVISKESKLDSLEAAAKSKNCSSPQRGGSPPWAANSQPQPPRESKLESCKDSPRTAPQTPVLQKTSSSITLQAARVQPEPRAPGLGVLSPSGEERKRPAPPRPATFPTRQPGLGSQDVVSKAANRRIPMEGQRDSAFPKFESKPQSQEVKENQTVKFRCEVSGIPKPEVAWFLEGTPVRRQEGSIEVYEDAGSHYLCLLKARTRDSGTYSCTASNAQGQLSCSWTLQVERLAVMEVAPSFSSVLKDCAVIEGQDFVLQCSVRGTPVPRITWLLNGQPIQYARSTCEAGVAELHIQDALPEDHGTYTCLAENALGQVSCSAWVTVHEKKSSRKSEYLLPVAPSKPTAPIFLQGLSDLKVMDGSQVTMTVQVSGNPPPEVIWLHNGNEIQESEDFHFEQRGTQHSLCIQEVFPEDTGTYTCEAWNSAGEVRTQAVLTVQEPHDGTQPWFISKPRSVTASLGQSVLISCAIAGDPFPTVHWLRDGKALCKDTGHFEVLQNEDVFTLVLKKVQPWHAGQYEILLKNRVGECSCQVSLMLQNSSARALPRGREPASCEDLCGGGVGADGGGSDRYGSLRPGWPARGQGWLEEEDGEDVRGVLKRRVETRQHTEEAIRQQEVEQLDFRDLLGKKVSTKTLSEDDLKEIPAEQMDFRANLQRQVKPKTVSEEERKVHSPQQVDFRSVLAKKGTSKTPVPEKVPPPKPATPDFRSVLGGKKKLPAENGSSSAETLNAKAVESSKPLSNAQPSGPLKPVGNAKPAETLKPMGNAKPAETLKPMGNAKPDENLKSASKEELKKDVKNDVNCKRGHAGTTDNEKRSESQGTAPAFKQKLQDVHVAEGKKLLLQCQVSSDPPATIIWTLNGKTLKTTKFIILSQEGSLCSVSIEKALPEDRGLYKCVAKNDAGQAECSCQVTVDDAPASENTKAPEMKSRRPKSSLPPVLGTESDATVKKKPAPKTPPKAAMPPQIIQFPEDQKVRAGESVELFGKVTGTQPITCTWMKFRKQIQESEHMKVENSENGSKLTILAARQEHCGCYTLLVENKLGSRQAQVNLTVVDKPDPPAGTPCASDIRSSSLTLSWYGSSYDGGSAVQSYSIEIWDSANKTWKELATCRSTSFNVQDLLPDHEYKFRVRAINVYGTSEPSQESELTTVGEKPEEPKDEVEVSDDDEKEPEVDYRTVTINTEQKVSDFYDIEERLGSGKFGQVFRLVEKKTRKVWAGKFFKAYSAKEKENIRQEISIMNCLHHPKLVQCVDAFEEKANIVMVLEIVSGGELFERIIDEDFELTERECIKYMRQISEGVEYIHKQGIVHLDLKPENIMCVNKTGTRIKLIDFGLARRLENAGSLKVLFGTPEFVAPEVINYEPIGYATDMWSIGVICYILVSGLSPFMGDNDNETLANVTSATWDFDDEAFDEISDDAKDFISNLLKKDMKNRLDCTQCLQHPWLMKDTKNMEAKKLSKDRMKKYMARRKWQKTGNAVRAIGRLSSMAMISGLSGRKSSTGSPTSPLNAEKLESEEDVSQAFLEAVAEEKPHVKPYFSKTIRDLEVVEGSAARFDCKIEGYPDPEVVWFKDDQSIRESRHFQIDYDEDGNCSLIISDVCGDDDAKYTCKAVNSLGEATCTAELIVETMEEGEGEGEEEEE

## CC(=O)c1c(NS(C)(=O)=O)c2cc(-c3ccc(Cl)cc3)c(-c3ccc(Cl)cc3Cl)nc2n(C)c1=O [MRL-CB1-NC]
[1]
  residual activity: 100%
[2]
  residual activity: 93%
[3]
  residual activity: 100%
[4]
  residual activity: 92%
[5]
  residual activity: 89%
[6]
  inhibition: -7.46%
[7]
  residual activity: 92%
[8]
  residual activity: 63%
[9]
  residual activity: 100%
[10]
  residual activity: 100%
[11]
  inhibition: 15.9%
[12]
  residual activity: 100%
[13]
  residual activity: 100%
[14]
  residual activity: 89%
[15]
  inhibition: 81.8%
[16]
  residual activity: 67%
[17]
  residual activity: 92%
[18]
  residual activity: 91%
[19]
  residual activity: 77%
[20]
  residual activity: 93%
[21]
  residual activity: 77%
[22]
  residual activity: 93%
[23]
  inhibition: 17.1%
[24]
  residual activity: 92%
[25]
  residual activity: 64%
[26]
  residual activity: 94%
[27]
  residual activity: 100%
[28]
  inhibition: 2.43%
[29]
  residual activity: 98%
[30]
  residual activity: 100%
[31]
  residual activity: 75%
[32]
  residual activity: 100%
[33]
  residual activity: 95%
[34]
  inhibition: -0.601%
[35]
  residual activity: 71%
[36]
  residual activity: 96%
[37]
  residual activity: 83%
[38]
  residual activity: 97%
[39]
  residual activity: 94%
[40]
  residual activity: 100%
[41]
  residual activity: 100%
[42]
  residual activity: 92%
[43]
  residual activity: 100%
[44]
  residual activity: 100%
[45]
  residual activity: 98%

## CC(=O)Nc1c(C(C)=O)c(=O)n(C)c2nc(-c3ccc(Cl)cc3Cl)c(-c3ccc(Cl)cc3)cc12 [NAPHTHYRIDINONE]
[1]
  residual activity: 100%
[2]
  residual activity: 100%
[3]
  residual activity: 100%
[4]
  residual activity: 100%
[5]
  residual activity: 100%
[6]
  inhibition: 50%
[7]
  residual activity: 100%
[8]
  residual activity: 87%
[9]
  residual activity: 100%
[10]
  residual activity: 100%
[11]
  inhibition: -3.09%
[12]
  residual activity: 100%
[13]
  residual activity: 96%
[14]
  residual activity: 100%
[15]
  inhibition: 17.5%
[16]
  residual activity: 100%
[17]
  residual activity: 100%
[18]
  residual activity: 85%
[19]
  residual activity: 100%
[20]
  residual activity: 100%
[21]
  residual activity: 100%
[22]
  residual activity: 100%
[23]
  inhibition: 22.7%
[24]
  residual activity: 81%
[25]
  residual activity: 58%
[26]
  residual activity: 100%
[27]
  residual activity: 100%
[28]
  inhibition: 5.73%
[29]
  residual activity: 100%
[30]
  residual activity: 100%
[31]
  residual activity: 100%
[32]
  residual activity: 48%
[33]
  residual activity: 100%
[34]
  inhibition: 1.6%
[35]
  residual activity: 78%
[36]
  residual activity: 100%
[37]
  residual activity: 68%
[38]
  residual activity: 100%
[39]
  residual activity: 100%
[40]
  residual activity: 100%
[41]
  residual activity: 100%
[42]
  residual activity: 100%
[43]
  residual activity: 100%
[44]
  residual activity: 100%
[45]
  residual activity: 100%

Source: ChEMBL document CHEMBL4507287, “Data for DCP probe MRL-650” (2021)
